Measured values published in patent US20170281508A1, “Peptides and Their Use in the Treatment of Skin” (AVON PRODUCTS, INC., priority 2014, published 2017).
Peptide text beside a SMILES is read from it.

System: Human dermal fibroblast cells
Experiment: Pro-collagen I production in human dermal fibroblast cells (HTRF human pro-collagen I kit)
Format: cell-based
Conditions: peptide concentration 0.001% in DMEM media without FBS, 48 h treatment, percent change relative to vehicle control
Experimental: Human dermal fibroblast cells were grown in a 96 well plate in DMEM media (available from Corning, N.Y.) supplemented with 10% Fetal Bovine Serum (FBS) and L-glutamine (0.07×10^5 cells/plate). After reaching about 75% confluence, cells were transferred into DMEM media without FBS and incubated for 4-6 hours. Next, cells were treated with peptide of Formula I at 0.00001%, 0.0001%, 0.001% final concentration in DMEM media without FBS for 48 h. After treatment the media were collected, and cell viability was measured using MTT. The amount of secreted collagen was tested in the media using HTRF human pro-collagen I kit (Cisbio Inc, Bedford, Mass.).
Results are summarized in Table 1 below as percent change of pro-collagen I production relative to vehicle control: […]

## CCC(C)C(NC(=O)C(N)CCC(N)=O)C(=O)NC(CC(C)C)C(=O)NC(CO)C(=O)NC(CCCCN)C(=O)NC(CC(C)C)C(=O)NC(CCCNC(=N)N)C(=O)NC(CC(C)C)C(=O)O (stereo not drawn) [QILSKLRL (SEQ ID NO: 1), Gln-Ile-Leu-Ser-Lys-Leu-Arg-Leu] (H-QILSKLRL-OH; configuration not given here)
  Increase in Pro-Collagen I Production: +10-30%
Listed as peptide of Formula I
  Increase in Pro-Collagen I Production: 10-30%
